22 compounds from ChEMBL document CHEMBL1140006, “2-Cycloalkyl phenoxyacetic acid CRTh2 receptor antagonists” (Bioorg Med Chem Lett, 2007) can be followed below.

Data set [1] has as its target T1, Prostaglandin D2 receptor (Homo sapiens, UniProt Q13258).
T1 sequence (Q13258 whole entry): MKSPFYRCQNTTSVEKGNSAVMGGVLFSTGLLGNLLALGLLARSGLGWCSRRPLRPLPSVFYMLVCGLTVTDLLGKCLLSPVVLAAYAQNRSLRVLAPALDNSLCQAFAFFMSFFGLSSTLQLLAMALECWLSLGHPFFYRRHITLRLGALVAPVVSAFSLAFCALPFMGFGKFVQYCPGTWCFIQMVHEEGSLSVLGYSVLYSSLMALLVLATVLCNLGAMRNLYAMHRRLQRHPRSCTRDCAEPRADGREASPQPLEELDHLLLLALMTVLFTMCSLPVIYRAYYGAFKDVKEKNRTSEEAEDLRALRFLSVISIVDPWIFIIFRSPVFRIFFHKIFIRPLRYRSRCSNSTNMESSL
Kind of data set: Binding affinity at prostanoid DP receptor.

Data set [2] has as its target T2, Prostaglandin D2 receptor 2 (Homo sapiens, UniProt Q9Y5Y4).
T2 sequence (Q9Y5Y4 whole entry): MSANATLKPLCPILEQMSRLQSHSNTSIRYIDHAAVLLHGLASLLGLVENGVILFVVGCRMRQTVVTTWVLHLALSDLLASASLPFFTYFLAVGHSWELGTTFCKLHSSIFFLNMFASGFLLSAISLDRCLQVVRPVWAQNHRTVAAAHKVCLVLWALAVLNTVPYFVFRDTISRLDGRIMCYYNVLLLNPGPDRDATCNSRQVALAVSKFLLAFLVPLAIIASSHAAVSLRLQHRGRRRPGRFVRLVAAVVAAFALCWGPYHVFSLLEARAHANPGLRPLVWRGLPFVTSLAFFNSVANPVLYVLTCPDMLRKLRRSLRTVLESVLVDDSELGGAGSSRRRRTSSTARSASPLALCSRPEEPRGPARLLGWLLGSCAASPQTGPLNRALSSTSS
Put plainly: Displacement of […] from human CRTh2 receptor expressed in CHO cells. The format is cell-based. (In general: Displacement assays read how much labelled ligand stays bound in the presence of the test substance.)

Data set [3] deals with Eosinophil. Kind of data set: Inhibition of 13,14-dihydro-15-ketoprostaglandin D2-stimulated human eosinophils shape change. The format is functional, cell-based.
The target of data set [4] is Prostaglandin E2 receptor EP2 subtype (Homo sapiens, UniProt P43116). Put plainly: Binding affinity at prostanoid EP2 receptor.
Sequence of Prostaglandin E2 receptor EP2 subtype (P43116 whole entry): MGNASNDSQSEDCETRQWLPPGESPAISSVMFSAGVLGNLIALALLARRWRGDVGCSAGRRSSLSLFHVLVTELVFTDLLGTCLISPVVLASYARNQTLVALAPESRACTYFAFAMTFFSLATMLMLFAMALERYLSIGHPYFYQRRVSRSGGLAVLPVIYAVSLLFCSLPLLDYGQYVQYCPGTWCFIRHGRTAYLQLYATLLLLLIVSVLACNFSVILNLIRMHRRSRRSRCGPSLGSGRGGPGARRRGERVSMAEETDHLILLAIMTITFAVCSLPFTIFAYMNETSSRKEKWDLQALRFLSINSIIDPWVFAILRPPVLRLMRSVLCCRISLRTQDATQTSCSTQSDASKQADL
The target of data set [5] is T3, Thromboxane A2 receptor (Homo sapiens, UniProt P21731).
T3 sequence (P21731 whole entry): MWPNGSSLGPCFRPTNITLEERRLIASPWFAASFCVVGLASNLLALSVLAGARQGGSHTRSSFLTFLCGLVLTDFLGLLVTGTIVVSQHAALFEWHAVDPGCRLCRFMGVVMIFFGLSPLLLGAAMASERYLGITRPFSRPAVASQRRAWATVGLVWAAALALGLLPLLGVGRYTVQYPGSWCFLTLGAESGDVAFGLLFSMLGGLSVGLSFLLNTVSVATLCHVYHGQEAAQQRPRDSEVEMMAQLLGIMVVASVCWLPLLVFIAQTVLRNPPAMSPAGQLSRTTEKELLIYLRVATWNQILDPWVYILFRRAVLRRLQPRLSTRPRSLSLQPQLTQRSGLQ
Kind of data set: Binding affinity at prostanoid TP receptor.

Data set [6] has as its target Cytochrome P450 2D6 (Homo sapiens, UniProt P10635). Kind of data set: Inhibition of CYP2D6. Format: ADME.
Data set [7] in a line: Intrinsic clearance in rat microsomes. Format: ADME, Microsome.
A short description of data set [8]: Cmax in rat. As to conditions: in vivo. Format: ADME, organism-based.
Data set [9] can be described thus: Oral bioavailability in rat at 2 mg/kg. Format: ADME, organism-based. As to conditions: in vivo.
Data set [10] deals with Cytochrome P450 2C19 (Homo sapiens, UniProt P33261). Kind of data set: Inhibition of CYP2C19. Format: ADME.
Sequence of Cytochrome P450 2C19 (P33261 whole entry): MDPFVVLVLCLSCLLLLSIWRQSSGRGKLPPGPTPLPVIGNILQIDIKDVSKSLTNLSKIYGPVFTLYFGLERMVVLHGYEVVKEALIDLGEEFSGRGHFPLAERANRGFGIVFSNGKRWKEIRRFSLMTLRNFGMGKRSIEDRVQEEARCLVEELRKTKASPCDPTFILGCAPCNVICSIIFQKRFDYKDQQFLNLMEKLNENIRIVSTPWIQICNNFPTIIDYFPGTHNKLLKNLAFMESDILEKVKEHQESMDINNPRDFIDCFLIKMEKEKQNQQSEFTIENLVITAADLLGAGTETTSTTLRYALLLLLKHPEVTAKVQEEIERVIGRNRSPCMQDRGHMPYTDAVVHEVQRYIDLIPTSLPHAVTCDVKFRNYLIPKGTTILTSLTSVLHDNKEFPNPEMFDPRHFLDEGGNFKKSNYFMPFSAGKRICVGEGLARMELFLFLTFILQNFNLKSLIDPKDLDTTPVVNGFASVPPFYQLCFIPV
A short description of data set [11]: AUCall in rat. The format is ADME, organism-based. As to conditions: plasma.
Data set [12] has as its system Eosinophil. Kind of data set: Inhibition of 13,14-dihydro-15-ketoprostaglandin D2-stimulated human eosinophils shape change upto 10 uM. The format is functional, cell-based.
The target of data set [13] is Cytochrome P450 2C9 (Homo sapiens, UniProt P11712). Kind of data set: Inhibition of CYP2C9. The format is ADME.
Sequence of Cytochrome P450 2C9 (P11712 whole entry): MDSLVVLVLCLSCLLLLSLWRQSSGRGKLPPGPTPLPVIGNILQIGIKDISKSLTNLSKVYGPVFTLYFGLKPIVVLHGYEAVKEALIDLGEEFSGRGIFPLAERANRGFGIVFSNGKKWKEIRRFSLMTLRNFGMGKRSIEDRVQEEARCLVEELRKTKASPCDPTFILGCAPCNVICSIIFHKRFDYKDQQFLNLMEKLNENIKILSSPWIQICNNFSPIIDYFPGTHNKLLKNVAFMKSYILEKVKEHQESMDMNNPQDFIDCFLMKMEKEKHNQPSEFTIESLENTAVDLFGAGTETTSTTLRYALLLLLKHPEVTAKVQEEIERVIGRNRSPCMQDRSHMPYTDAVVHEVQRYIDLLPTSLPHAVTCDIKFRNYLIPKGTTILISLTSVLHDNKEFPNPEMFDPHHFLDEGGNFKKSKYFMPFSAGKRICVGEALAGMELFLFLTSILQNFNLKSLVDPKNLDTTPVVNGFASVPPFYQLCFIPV
A short description of data set [14]: Intrinsic clearance in human microsomes. Format: ADME, Microsome.
In data set [15] the target is Cytochrome P450 3A4 (Homo sapiens, UniProt P08684). Put plainly: Inhibition of CYP3A4. The format is ADME.
Sequence of Cytochrome P450 3A4 (P08684 whole entry): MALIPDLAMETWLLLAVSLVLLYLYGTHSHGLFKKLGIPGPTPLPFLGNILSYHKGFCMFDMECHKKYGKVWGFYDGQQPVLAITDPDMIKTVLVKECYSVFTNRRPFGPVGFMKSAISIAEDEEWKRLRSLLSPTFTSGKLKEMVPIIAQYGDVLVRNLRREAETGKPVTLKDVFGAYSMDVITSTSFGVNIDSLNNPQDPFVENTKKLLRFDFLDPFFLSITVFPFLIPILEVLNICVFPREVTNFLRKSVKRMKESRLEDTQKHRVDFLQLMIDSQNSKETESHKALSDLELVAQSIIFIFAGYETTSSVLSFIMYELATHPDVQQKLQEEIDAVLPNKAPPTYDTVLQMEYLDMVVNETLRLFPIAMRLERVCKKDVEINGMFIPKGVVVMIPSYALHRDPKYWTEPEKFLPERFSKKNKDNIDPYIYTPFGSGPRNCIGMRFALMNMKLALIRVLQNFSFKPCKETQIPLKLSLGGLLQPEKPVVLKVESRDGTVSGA
A short description of data set [16]: Volume of distribution at steady state in rat. The format is ADME, organism-based. As to conditions: in vivo, read-out: Vdss.
The nature of data set [17]: Permeability from basolateral to apical side of Caco-2 cell membrane. The format is ADME, cell-based. As to conditions: human, read-out: permeability. A general note: Passage across Caco-2 layers is used to estimate intestinal permeability.
Data set [18] can be described thus: Clearance in rat. The format is ADME, organism-based. As to conditions: in vivo.
Data set [19] concerns the target T4, Cytochrome P450 1A2 (Homo sapiens, UniProt P05177).
T4 sequence (P05177 whole entry): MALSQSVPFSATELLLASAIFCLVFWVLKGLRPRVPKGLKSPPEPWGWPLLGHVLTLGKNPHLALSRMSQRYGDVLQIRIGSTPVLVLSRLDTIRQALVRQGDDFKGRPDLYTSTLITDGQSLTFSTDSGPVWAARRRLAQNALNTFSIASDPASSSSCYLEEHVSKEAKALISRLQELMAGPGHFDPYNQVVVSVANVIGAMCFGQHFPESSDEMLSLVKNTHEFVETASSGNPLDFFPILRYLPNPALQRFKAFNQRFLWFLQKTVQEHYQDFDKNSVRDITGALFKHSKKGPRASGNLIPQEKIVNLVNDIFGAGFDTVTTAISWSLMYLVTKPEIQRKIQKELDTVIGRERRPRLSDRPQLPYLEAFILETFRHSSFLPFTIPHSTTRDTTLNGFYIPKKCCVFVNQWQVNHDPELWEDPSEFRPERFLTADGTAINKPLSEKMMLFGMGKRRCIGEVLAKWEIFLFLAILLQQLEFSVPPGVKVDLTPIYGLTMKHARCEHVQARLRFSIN
Kind of data set: Inhibition of CYP1A2. Format: ADME.

The nature of data set [20]: Half life in rat at 0.5 mg/kg, iv. Format: ADME, organism-based. Also on record: dose 0.5 mg/kg, route intravenous. As to conditions: in vivo.
Data set [21] can be described thus: Permeability from apical to basolateral side of Caco-2 cell membrane. As to conditions: human, read-out: permeability. The format is ADME, cell-based.

pIC50, pKi: −log10 of the molar value. Calls of active or inactive are those of the source.

Sequence of Cytochrome P450 2D6 (P10635 whole entry): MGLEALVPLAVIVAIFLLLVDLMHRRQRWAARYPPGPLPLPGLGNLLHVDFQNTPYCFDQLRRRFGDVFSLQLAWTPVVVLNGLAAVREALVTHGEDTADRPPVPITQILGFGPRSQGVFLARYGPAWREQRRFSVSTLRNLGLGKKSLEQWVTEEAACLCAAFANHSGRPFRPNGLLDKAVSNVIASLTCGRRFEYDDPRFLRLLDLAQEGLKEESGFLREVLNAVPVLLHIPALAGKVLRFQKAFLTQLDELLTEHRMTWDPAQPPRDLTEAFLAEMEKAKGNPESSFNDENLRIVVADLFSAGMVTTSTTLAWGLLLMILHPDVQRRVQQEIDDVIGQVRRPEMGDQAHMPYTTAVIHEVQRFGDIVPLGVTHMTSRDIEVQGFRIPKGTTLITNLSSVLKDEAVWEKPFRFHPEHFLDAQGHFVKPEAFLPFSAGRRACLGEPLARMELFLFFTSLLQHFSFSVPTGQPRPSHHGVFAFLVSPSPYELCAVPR

With `O=C(O)COc1ccc(F)cc1C1CCCCC1`, the figures for the pKi in data set [1] and in [2] were < 5.00 and 6.35, respectively.

As for `O=C(O)COc1ccc(Cl)cc1C1CCCCC1`, the pIC50 (in general, the negative decadic logarithm of the IC50, by convention in mol/L) in data set [3] was 7.03. Moreover, the negative logarithm of the Ki (pKi) – broadly, −log10 of the Ki, conventionally taken in molar units – in [4] was 5.52; in [1], 5.12; in data set [2] it was 6.81; in data set [5], < 5.00.

Consider `O=C(O)CCOc1ccc(Cl)cc1C1CCCCC1`, for which the pKi in data set [1] was < 5.00; in data set [2], 6.10.

For `O=C(O)COc1ccc(-c2ccc(F)cc2)cc1C1CCCCC1`, the results for the pKi in data set [1] and in data set [2] were 5.19 and 7.00, respectively.

With `C[C@H](Oc1ccc(Cl)cc1C1CCCCC1)C(=O)O`, in data set [1], the pKi was 5.35.

In data set [3], `N#Cc1ccc(OCC(=O)O)c(C2CCCCC2)c1` had a pIC50 of 7.28. The values for the pKi in [1] and in data set [2] were < 5.00 and 6.64, respectively.

On to `Clc1ccc(OCc2nnn[nH]2)c(C2CCCCC2)c1`, for which the pKi in data set [1] and in data set [2] was < 5.00 throughout.

In the case of `O=C(O)COc1ccccc1C1CCCCC1`, the results for the pKi in data set [1] and in data set [2] were < 5.00 and 6.51, respectively.

`O=C(O)COc1ccc(Cl)cc1C1CCCC1` showed a pIC50 in [3] of 5.99. Moreover, the pKi in data set [1] is 5.32; in data set [2] it was 6.82.

`Cc1cc(Cl)ccc1OCC(=O)O` [METAXON]: the pKi in data set [1] and in data set [2] was < 5.00 each time.

`O=C(O)COc1ccc(Br)cc1C1CCCCC1` had a pIC50 in data set [3] of 6.35. Also, the pKi in [1] is 5.23; in data set [2] it was 7.08.

As to `O=C(O)COc1ccc(Cl)cc1C1CCCCCC1`, the pIC50 in data set [3] was 6.61; in [6], < 5.00; in data set [10], < 5.00; in data set [13], < 5.00; in data set [15], < 5.00; in data set [19], < 5.00. For the same compound, the microsomal CLint (in general, the rate of metabolic loss divided by the concentration) in data set [7] was 205 µL/min/mg; in [14] it was 109 µL/min/mg. Moreover, the concentration in data set [8] peaked (Cmax) at 4.7 µM. In addition, the bioavailability (as a rule, dose-corrected exposure relative to a reference, in per cent) in [9] was 58%. Also, the AUC (commonly the area under the concentration-time curve, a measure of exposure) in data set [11] is 11.6 µM·h. For the same compound, the outcome in [12] was inactive. Moreover, the pKi in [1] is 5.73; in data set [2], 7.23. Besides, in data set [16], the Vd is 0.52 L/kg. Further, the Papp B→A in data set [17] came out at 21.4 ×10⁻⁶ cm/s. Moreover, the clearance (usually a measure of how efficiently the substance is removed, as volume per time) in data set [18] turned out to be 7.3 mL/min/kg. For the same compound, the half-life (commonly the time needed for the level to fall by half in the phase considered) in [20] worked out at 1.18 h. The Papp A→B in data set [21] amounted to 8.4 ×10⁻⁶ cm/s.

In [3], `O=C(O)COc1ccc(C(F)(F)F)cc1C1CCCCC1` showed a pIC50 of 6.76. For the same compound, the figures for the pKi in data set [1] and in [2] were < 5.00 and 7.70, respectively.

As to `Cc1ccc(OCC(=O)O)c(C2CCCCC2)c1`, the pKi in data set [1] is < 5.00; in data set [2] it was 6.45.

Turning to `CS(=O)(=O)NC(=O)COc1ccc(Cl)cc1C1CCCCC1`, the pKi in data set [1] and in data set [2] was < 5.00 each time.

As to `CC1(c2cc(Cl)ccc2OCC(=O)O)CCCCC1`, the pIC50 in data set [3] is 6.35. Also, the pKi in data set [1] was 5.92; in [2] it was 7.05.

With `COc1ccc(OCC(=O)O)c(C2CCCCC2)c1`, the negative-log Ki (pKi) in [1] is < 5.00; in data set [2], 6.11.

With `C[C@@H](Oc1ccc(Cl)cc1C1CCCCC1)C(=O)O`, the pKi in [1] is < 5.00.

As to `OCCOc1ccc(Cl)cc1C1CCCCC1`, the pKi in data set [1] and in data set [2] was < 5.00 each time.

As for `C=CCc1cc(Cl)ccc1OCC(=O)O`, the pKi was 5.32 in data set [1] and 5.29 in data set [2].

Consider `O=C(O)CCCOc1ccc(Cl)cc1C1CCCCC1`, for which the figures for the pKi in data set [1] and in data set [2] were < 5.00 and 5.70, respectively.

Regarding `COC(=O)COc1ccc(Cl)cc1C1CCCCC1`, the results for the pKi in data set [1] and in data set [2] were 5.05 and 5.48, respectively.
